In US9751870B2, “Oxytocin receptor agonists for the treatment of CNS diseases” (Hoffmann-La Roche Inc., priority 2013, dated 2017):

Biological target: T1, human Oxytocin (OTR) receptor (Homo sapiens, UniProt P30559)
T1 construct: expressed in transfected cells
T1 sequence (P30559 1-389): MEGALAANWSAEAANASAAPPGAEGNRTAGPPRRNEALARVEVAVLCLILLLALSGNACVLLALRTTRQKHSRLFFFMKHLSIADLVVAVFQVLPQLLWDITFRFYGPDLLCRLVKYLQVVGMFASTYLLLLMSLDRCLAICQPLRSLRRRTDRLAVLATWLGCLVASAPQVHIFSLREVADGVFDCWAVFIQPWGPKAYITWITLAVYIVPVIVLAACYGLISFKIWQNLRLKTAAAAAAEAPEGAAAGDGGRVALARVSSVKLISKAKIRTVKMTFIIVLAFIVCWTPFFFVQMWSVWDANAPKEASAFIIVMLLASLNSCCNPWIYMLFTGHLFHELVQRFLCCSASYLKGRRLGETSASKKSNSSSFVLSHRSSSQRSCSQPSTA
Assay: Calcium flux assay (FLIPR), agonist mode, CHO cells expressing human OTR
Format: cell-based
Details: calcium flux in CHO cells expressing human OTR, read-out: hEC50
Excerpt: Chinese Hamster Ovary (CHO) cells were transfected with expression plasmids encoding either the human V1a, the human Oxytocin (OTR) or the humanV2 receptor, the latter in combination with the chimeric Gqs5 G protein to redirect the signal to Calcium flux. Stable cells were cloned by limiting dilution to yield monoclonal cell lines expressing either human V1a, human V2+Gqs5 or human OTR receptors and selected based on functional responses detected on a fluorometric imaging plate reader (FLIPR) detecting Calcium flux in the cell after receptor activation. The stable cell lines were grown in F-12 K Nutrient Mixture (Kaighns Modification), containing 10% foetal bovine serum (FBS), 1% penicillin-streptomycin, 1% L-[…], 200 ug/ml Geneticin at 37° C. in a 10% CO2 incubator at 95% humidity.
Calcium Flux Assays Using Fluorescent Imaging (Fluorometric Imaging Plate Reader, FLIPR)
On the afternoon before the assay, cells were plated at a density of 50,000 cells/well into black 96 well plates with clear bottoms to allow cell inspection and fluorescence measurements from the bottom of each well. The density of cells was sufficient to yield a confluent monolayer the next day. Hanks balanced salt solution, without phenol red, containing 20 mM HEPES (pH 7.3) and 2.5 mM probenecid (assay buffer) was prepared fresh for each experiment. Compound dilutions were made using a Beckman Biomek 2000 laboratory automation workstation, in assay buffer containing 1% DMSO. The dye-loading buffer consisted of a final concentration of 2 μM Fluo-4-AM (dissolved in DMSO and pluronic acid) in assay buffer. The existing culture media was removed from the wells and 100 μl of the dye-loading buffer was added to each well and incubated for approximately 60 min at 37° C. in a 5% CO2 incubator at 95% humidity. Once dye-loaded, the cells were washed thoroughly on an Embla cell washer with the assay buffer to remove any unincorporated dye. Exactly 100 μl assay buffer was left in each well.
Each 96 well plate containing dye-loaded cells was placed into the FLIPR machine and the laser intensity set to a suitable level to detect low basal fluorescence. To test compounds as agonists, 25 μl diluted compound was added to the plate 10 seconds into the fluorescent measurements and fluorescent response was recorded for 5 minutes. The fluorescence data was normalized to the endogenous full agonist dose-response set at 100% for the maximum response and 0% for the minimum. Each agonist concentration-response curve was constructed using a four parameter logistic equation with Microsoft Excel XLFit as follows: Y=Minimum+((Maximum−Minimum)/(1+10^(LogEC50-X)nH)), where y is the % normalized fluorescence, minimum is the minimum y, maximum is the maximum y, log EC50 is the log10 concentration which produces 50% of the maximum induced fluorescence, x is the log10 of the concentration of the agonist compound and H is the slope of the curve (the Hill Coefficient). The maximum value gives the efficacy of the agonist test compound in percentage. The concentration of agonist that produced a half-maximal response is represented by the EC50 value, the logarithm of which yielded the pEC50 value.

Row | SMILES | EC50
1 | O=S(=O)(Nc1ccnn1-c1ccccn1)c1ccc(Cl)cc1 [Example 1, 4-Chloro-N-(2-pyridin-2-yl-2H-pyrazol-3-yl)-benzenesulfonamide] | 19 nM
2 | O=S(=O)(Nc1ccnn1-c1ccccn1)c1ccc(C(F)(F)F)cc1 [Example 2, N-(2-Pyridin-2-yl-2H-pyrazol-3-yl)-4-trifluoromethyl-benzenesulfonamide] | 8 nM
3 | CCc1ccc(S(=O)(=O)Nc2ccnn2-c2ccccn2)cc1 [Example 3, 4-Ethyl-N-(2-pyridin-2-yl-2H-pyrazol-3-yl)-benzenesulfonamide] | 16 nM
4 | CCCc1ccc(S(=O)(=O)Nc2ccnn2-c2ccccn2)cc1 [Example 4, 4-Propyl-N-(2-pyridin-2-yl-2H-pyrazol-3-yl)-benzenesulfonamide] | 34 nM
5 | O=S(=O)(Nc1ccnn1-c1ccccn1)c1ccc(C(F)(F)F)cc1Cl [Example 5, 2-Chloro-N-(2-pyridin-2-yl-2H-pyrazol-3-yl)-4-trifluoromethyl-benzenesulfonamide] | 91 nM
6 | O=S(=O)(Nc1ccnn1-c1ccccn1)c1ccc(OC(F)F)cc1 [Example 6, 4-Difluoromethoxy-N-(2-pyridin-2-yl-2H-pyrazol-3-yl)-benzenesulfonamide] | 107 nM
7 | O=S(=O)(Nc1ccnn1-c1ccc(F)cc1)c1ccc(Cl)cc1 [Example 7, 4-Chloro-N-[2-(4-fluoro-phenyl)-2H-pyrazol-3-yl]-benzenesulfonamide] | 2460 nM
8 | N#Cc1ccc(S(=O)(=O)Nc2ccnn2-c2ccccn2)cc1 [Example 8, 4-Cyano-N-(2-pyridin-2-yl-2H-pyrazol-3-yl)-benzenesulfonamide] | 81 nM
9 | Cc1csc(-n2nccc2NS(=O)(=O)c2ccc(C(F)(F)F)cc2)n1 [Example 9, N-[2-(4-Methyl-thiazol-2-yl)-2H-pyrazol-3-yl]-4-trifluoromethyl-benzenesulfonamide] | 520 nM
10 | Cc1csc(-n2nccc2NS(=O)(=O)c2ccc(Cl)cc2)n1 [Example 10, 4-Chloro-N-[2-(4-methyl-thiazol-2-yl)-2H-pyrazol-3-yl]-benzenesulfonamide] | 163 nM
11 | CCc1ccc(S(=O)(=O)Nc2ccnn2-c2nc(C)cs2)cc1 [Example 11, 4-Ethyl-N-[2-(4-methyl-thiazol-2-yl)-2H-pyrazol-3-yl]-benzenesulfonamide] | 113 nM
12 | O=S(=O)(Nc1ccnn1-c1ncccn1)c1ccc(C(F)(F)F)cc1 [Example 12, N-(2-Pyrimidin-2-yl-2H-pyrazol-3-yl)-4-trifluoromethyl-benzenesulfonamide] | 1800 nM
13 | O=S(=O)(Nc1ccnn1-c1ccccn1)c1ccc(Cl)cc1Cl [Example 13, 2,4-Dichloro-N-(2-pyridin-2-yl-2H-pyrazol-3-yl)-benzenesulfonamide] | 17 nM
14 | CC(F)c1ccc(S(=O)(=O)Nc2ccnn2-c2ccccn2)cc1 (stereo not shown) [Example 15, 4-(1-Fluoro-ethyl)-N-(2-pyridin-2-yl-2H-pyrazol-3-yl)-benzenesulfonamide] | 84 nM
15 | Cc1ccnc(-n2nccc2NS(=O)(=O)c2ccc(C(F)(F)F)cc2)c1 [Example 16, N-[2-(4-Methyl-pyridin-2-yl)-2H-pyrazol-3-yl]-4-trifluoromethyl-benzenesulfonamide] | 17 nM
16 | Cc1ccnc(-n2nccc2NS(=O)(=O)c2ccc(Cl)cc2)c1 [Example 17, 4-Chloro-N-[2-(4-methyl-pyridin-2-yl)-2H-pyrazol-3-yl]-benzenesulfonamide] | 16 nM
17 | CCc1ccc(S(=O)(=O)Nc2ccnn2-c2cc(C)ccn2)cc1 [Example 18, 4-Ethyl-N-[2-(4-methyl-pyridin-2-yl)-2H-pyrazol-3-yl]-benzenesulfonamide] | 20 nM
18 | Cc1ccnc(-n2nccc2NS(=O)(=O)c2ccc(C#N)cc2)c1 [Example 19, 4-Cyano-N-[2-(4-methyl-pyridin-2-yl)-2H-pyrazol-3-yl]-benzenesulfonamide] | 63 nM
19 | O=S(=O)(Nc1ccnn1-c1ccccn1)c1ccc(SC(F)(F)F)cc1 [Example 20, N-(2-Pyridin-2-yl-2H-pyrazol-3-yl)-4-trifluoromethylsulfanyl-benzenesulfonamide] | 47 nM
20 | O=S(=O)(Nc1ccnn1-c1ccnc(C(F)(F)F)n1)c1ccc(C(F)(F)F)cc1 [Example 21, 4-Trifluoromethyl-N-[2-(2-trifluoromethyl-pyrimidin-4-yl)-2H-pyrazol-3-yl]-benzenesulfonamide] | 1570 nM
21 | O=S(=O)(Nc1ccnn1-c1ccccn1)c1ccc(C(F)(F)F)cc1F [Example 22, 2-Fluoro-N-(2-pyridin-2-yl-2H-pyrazol-3-yl)-4-trifluoromethyl-benzenesulfonamide] | 333 nM
22 | O=S(=O)(Nc1ccnn1-c1ccccn1)c1ccc(S(=O)(=O)C(F)(F)F)cc1 [Example 23, N-(2-Pyridin-2-yl-2H-pyrazol-3-yl)-4-trifluoromethanesulfonyl-benzenesulfonamide] | 753 nM
23 | O=S(=O)(Nc1ccnn1-c1ccccn1)c1ccc(C(F)(F)F)c(F)c1 [Example 24, 3-Fluoro-N-(2-pyridin-2-yl-2H-pyrazol-3-yl)-4-trifluoromethyl-benzenesulfonamide] | 799 nM
24 | CCc1ccc(S(=O)(=O)Nc2ccnn2-c2nc(C3CC3)ns2)cc1 [Example 25, N-[2-(3-Cyclopropyl-[1,2,4]thiadiazol-5-yl)-2H-pyrazol-3-yl]-4-ethyl-benzenesulfonamide] | 1570 nM
25 | Cc1csc(-n2nccc2NS(=O)(=O)c2ccc(Cl)cc2F)n1 [Example 26, 4-Chloro-2-fluoro-N-[2-(4-methyl-thiazol-2-yl)-2H-pyrazol-3-yl]-benzenesulfonamide] | 150 nM
